Laboratory results as given in US9474759B2 (priority 2011, dated 2016).
Read-outs that look alike come from different tables or passages of the source.

How the values were obtained:
EV71 = test: Cell-based screening, EV71 in Vero cells (Example 2); set-up: species or system enterovirus 71; conditions: Enterovirus A, EV71, Vero, read-out: Inhibition [ED50 (μM)] against various viruses: Picornavirus, EV71
Description: (§1) 3. Cell-based screening of inhibitor. The effects of each inhibitor on the viral replication were examined. The list of viruses and corresponding cell lines are listed above in Table 2. Briefly, confluent cells were inoculated with virus at a MOI of 5 or 0.05 for 1 hr, and medium was replaced with medium containing mock-medium or each compound (up to 100 μM). The virus infected cells were further incubated for up to 96 hrs, and the replication of virus was measured by TCID50 assay with the 10-fold dilution of each sample used for virus titration (Reed and Muench, 1938). In some viruses, the virus protein and genome expression levels were detected by Western blot analysis and real-time qRT-PCR, respectively, as described below. The IC50s of the compounds were calculated.

[1] = tested on: 3CLpro of NV, MD145, MNV-1; assay type: biochemical, norovirus; conditions: optimized FRET-based protease assay
FCV [2] = test: Cell culture system, FCV replication in CRFK cells (Example 3); assay type: cell-based, feline calicivirus; conditions: CRFK cells
[3] = tested on: Norwalk virus (HG23 cells); test: microbe, parasite or virus in culture; assay type: cell-based; conditions: HG23, read-out: Inhibition [ED50 (μM)] against various viruses: Calicivirus, HG23 cells
MNV-1 [4] = test: Cell culture system, MNV-1 replication in RAW267.4 cells (Example 3); assay type: cell-based, murine norovirus; conditions: RAW267.4 cells
[5] = target: Norwalk virus 3CL protease (Norovirus, UniProt Q83883); test: Recombinant NV protease fluorogenic substrate inhibition assay (Example 1); assay type: biochemical; conditions: 30 min pre-incubation, 30° C., pH 8.0
Description: After a 30 minute incubation period, 5 μL of 12 μM Edans-[…]-Dabcyl (SEQ ID NO:1) substrate in DMSO was then added and the increase in fluorescence was monitored for 30 minutes at an excitation and emission wavelength of 360 and 460 nm, respectively. Using a HORIBA FluoroMax 4 spectrofluorometer. Hydrolysis curves were linear. The final enzyme and substrate concentrations were 2.5 μM and 300 nM, respectively. […] Furthermore, the nature of the cap was also important (compare, for example, inhibitors A and D).

[6] = PK and oral bioavailability studies in rats; conditions: 20 mg/Kg (body weight), IV or PO
[7] = target: HAV 3Cpro (full-length, 6 His, recombinant) (Human hepatitis A virus genotype IB, UniProt P08617); test: biochemical; set-up: species or system human hepatitis A virus (strain HM175)
[8] = target: recombinant 3C or 3CL of MD145 (Norovirus Hu/GII.4/MD145-12/1987/US (Maryland virus), UniProt Q8V0P3); test: FRET protease assay, MD145 3CL (Example 2); assay type: biochemical, norovirus strain MD145
Teschovirus = test: organism not typed; assay type: cell-based, porcine teschovirus; conditions: read-out: Inhibition [ED50 (μM)] against various viruses: Picornavirus, Teschovirus
HAV [9] = test: Cell-based screening, HAV (Example 2); set-up: species or system hepatitis A virus; conditions: Picornaviridae, read-out: Inhibition [ED50 (μM)] against various viruses: Picornavirus, HAV
Description: as §1

FCV [10] = test: Cell-based screening, FCV in CRFK cells (Example 2); conditions: Feline calicivirus, CRFK, read-out: Inhibition [ED50 (μM)] against various viruses: Calicivirus, FCV
Description: as §1

MHV = test: Cell-based screening, MHV in CCL-9.1 cells (Example 2); set-up: species or system mouse hepatitis virus; conditions: Murine coronavirus, read-out: Inhibition [ED50 (μM)] against various viruses: Coronavirus, MHV
TGEV = test: Cell-based screening, TGEV in ST cells (Example 2); set-up: species or system transmissible gastroenteritis virus; conditions: Alphacoronavirus 1, read-out: Inhibition [ED50 (μM)] against various viruses: Coronavirus, TGEV
Description: as §1

HAV 3Cpro = HAV 3Cpro (Human hepatitis A virus genotype IB, UniProt P08617); test: Optimized FRET protease assay, HAV 3Cpro (Example 3); assay type: biochemical
Description: Fluorogenic substrates with Edans and Dabcyl as a donor and quencher pair were purchased from Bachem (coronavirus substrate) or synthesized by GenScript. The viral proteases and the corresponding fluorogenic substrates are listed in Table 5, along with their sources.
Stock solutions (10 mM) of the substrates and the compounds were prepared in dimethyl sulfoxide (DMSO) and diluted in assay buffer. The assay buffer comprised 20 mM HEPES buffer containing NaCl (0 mM for HAV 3Cpro and 200 mM for all other proteases), 0.4 mM EDTA, Glycerol (60% for NV and MD145 3CLpro and 30% for TGEV and 229E 3CLpro), and 6 mM (NV and MD145 3CLpro and HAV 3Cpro)_or 4 mM (all other proteases) dithiothreitol (DTT) at pH 6 (coronavirus 3CLpro) or 8 (all other proteases). Each protease was mixed with serial dilutions of each compound or with DMSO in 25 μl of assay buffer and incubated at 37° C. for 30 min, followed by the addition of 25 μl of assay buffer containing substrate. Fluorescence readings were obtained using an excitation wavelength of 360 nm and an emission wavelength of 460 nm on a fluorescence microplate reader (FLx800; Biotek, Winooski, Vt.) at 1 h following the addition of substrate. The relative fluorescence units (RFU) were determined by subtracting background values (substrate-containing well without protease) from the raw fluorescence values. […]

MNV-1 [11] = test: Cell-based screening, MNV-1 in RAW267.4 cells (Example 2); set-up: species or system murine norovirus; conditions: Norwalk virus, RAW267.4, read-out: Inhibition [ED50 (μM)] against various viruses: Calicivirus, MNV-1
Description: as §1

FIPV = test: Cell-based screening, FIPV in CRFK cells (Example 2); set-up: species or system feline infectious peritonitis virus; conditions: Alphacoronavirus 1, CRFK, read-out: Inhibition [ED50 (μM)] against various viruses: Coronavirus, FIPV
Description: as §1

[12] = target: SARS-CoV 3CLpro (codon-optimized, N-terminal 6 His, recombinant) (Severe acute respiratory syndrome coronavirus, UniProt P0C6X7); test: biochemical
[13] = target: T1, MD145 3CLpro (codon-optimized, full-length, N-terminal 6 His, recombinant) (Lordsdale virus, UniProt P54634); test: biochemical; set-up: species or system norovirus strain MD145 (human norovirus GII)
229E = test: Cell-based screening, 229E in MRC-5 cells (Example 2); conditions: Human coronavirus 229E, MRC5, read-out: Inhibition [ED50 (μM)] against various viruses: Coronavirus, 229E
Description: as §1

HAV [14] = test: Cell culture system, HAV replication in FRhK-4 cells (Example 3); assay type: cell-based, hepatitis A virus
MNV-1 [15] = conditions: MNV-1 passaged in the presence of the drug
[16] = tested on: human norovirus (GII.12 HS206); test: Gnotobiotic pig model of human norovirus infection, repeat at 100 mg/kg/day; assay type: in vivo; conditions: Gn pigs
Text: After antiviral treatment or HuNoV inoculation, clinical signs and fecal virus shedding were monitored daily through day 14.

TGEV 3CL protease = TGEV 3CL protease (Porcine transmissible gastroenteritis coronavirus, UniProt P0C6Y5); test: FRET-based protease assay, TGEV 3CL protease (Example 5); assay type: biochemical, TGEV Miller strain; conditions: compound at 50 μM final concentration
Text: The 3CL proteases are highly conserved among all coronaviruses, and feline coronavirus 3CL protease is closely related TGEV 3CL protease. Therefore we cloned and expressed the TGEV 3CL protease for the FRET assay. The cDNA encoding the full length of 3CL protease of TGEV Miller strain was amplified with RT-PCR as previously described. The primers contained the nucleotide sequence of the 3CL protease for cloning as well as the nucleotides for 6 Histidine in the forward primer. The amplified product was subcloned to pET-28a(+) vector (GenScript, Piscataway, N.J.). The expression and purification of the 3CL protease was performed with a standard method described previously by our lab (Chang et al., 2012b; Takahashi et al., 2012; Tiew et al., 2011).
Our protease inhibitor compounds and commercial cathepsin inhibitors CA074-Me and E64d were prepared in DMSO as stock solutions (10 mM), and further diluted in assay buffer consisting of 20 mM HEPES, 0.4 mM EDTA, 30% glycerol, 120 mM NaCl, and 4 mM DTT at pH 6. […] TGEV 3CL protease at a final concentration of 0.1˜0.2 μM and the substrate (Dabcyl-[…]-Edans; SEQ ID NO:2) at 10 μM were used for the studies. The substrate was purchased from Bachem Americas, Inc (Torrance, Calif.). Compounds at various concentrations (0˜50 μM) were pre-incubated with TGEV 3CL protease in 25 μl for 30 min at 37° C., and the same volume of substrate was added to a 96-well black plate. The mixtures were then incubated at 37° C. for 60 min, and fluorescence readings were obtained on a microplate reader at 360 nm excitation and 480 nm emission wavelengths. The relative fluorescence units (RFU) were calculated by subtracting background (substrate control well without protease) from the fluorescence readings. The dose-dependent FRET inhibition curves were fitted with variable slope (four parameters) using GraphPad Prism software (La Jolla, Calif.) in order to determine the compound concentration that gives a half-maximum response (IC50).

human norovirus (HuNoV) = test: Gnotobiotic pig model of human norovirus infection, first trial; assay type: in vivo, gnotobiotic (Gn) pigs
Text: We investigated if fecal norovirus shedding in human norovirus-inoculated gnotobiotic (Gn) pigs is altered the by treatment with GC376. […] On day 2 after antiviral treatment, they were inoculated orally with 1.0×10^10 genome equivalent (GE) of Human norovirus (GII.12 HS206). Rectal swabs were collected daily from each animal throughout the experiment, and fecal virus shedding and clinical signs were monitored daily until virus was not detectable by real-time qRT-PCR. The Table below summarizes the results.

[17] = target: T1, MD145 3CLpro (codon-optimized, full-length, N-terminal 6 His, recombinant); test: biochemical; set-up: species or system norovirus strain MD145
[18] = target: NV 3CLpro (codon-optimized, full-length, N-terminal 6 His, recombinant) (Norovirus, UniProt Q83883); test: biochemical; set-up: species or system norovirus strain Norwalk
[19] = target: HRV 3Cpro (recombinant, purchased from EMD chemicals) (Human rhinovirus 14, UniProt P03303); test: biochemical
[20] = target: PV 3Cpro (codon-optimized, N-terminal 6 His, recombinant) (Poliovirus type 1, UniProt P03300); test: biochemical; set-up: species or system poliovirus (poliomyelitis virus)
[21] = oral 100 mg/kg once a day for 5 days
[22] = Gn pigs, oral 25 mg/kg twice a day 10 days then approx. 12.5 mg/kg twice a day 5 days
[23] = same regimen, detection limit 4.7 log10 GE/ml

T1 sequence (P54634 1009-1189): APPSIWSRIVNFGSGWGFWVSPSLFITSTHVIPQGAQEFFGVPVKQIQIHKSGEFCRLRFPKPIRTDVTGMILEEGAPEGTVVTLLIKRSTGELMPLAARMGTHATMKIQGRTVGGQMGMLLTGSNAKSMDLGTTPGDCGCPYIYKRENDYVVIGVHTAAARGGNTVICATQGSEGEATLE
Chain of PV 3Cpro (codon-optimized, N-terminal 6 His, recombinant) (P03300 1566-1748 limits assumed): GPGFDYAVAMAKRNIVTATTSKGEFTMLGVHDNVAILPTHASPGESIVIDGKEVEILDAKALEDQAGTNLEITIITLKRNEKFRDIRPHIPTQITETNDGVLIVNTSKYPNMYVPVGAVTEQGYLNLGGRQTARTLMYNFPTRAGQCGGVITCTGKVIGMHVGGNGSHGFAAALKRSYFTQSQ
Chain of HAV 3Cpro (full-length, 6 His, recombinant) (P08617 1520-1738): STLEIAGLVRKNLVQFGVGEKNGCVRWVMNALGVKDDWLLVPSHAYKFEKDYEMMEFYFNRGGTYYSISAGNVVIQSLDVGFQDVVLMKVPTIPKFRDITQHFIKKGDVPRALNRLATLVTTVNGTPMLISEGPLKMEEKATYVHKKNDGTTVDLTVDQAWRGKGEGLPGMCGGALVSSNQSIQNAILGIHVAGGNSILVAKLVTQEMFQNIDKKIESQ
Chain of HAV 3Cpro (P08617 1520-1738): as above
Chain of recombinant 3C or 3CL of MD145 (Q8V0P3 entry or part of it): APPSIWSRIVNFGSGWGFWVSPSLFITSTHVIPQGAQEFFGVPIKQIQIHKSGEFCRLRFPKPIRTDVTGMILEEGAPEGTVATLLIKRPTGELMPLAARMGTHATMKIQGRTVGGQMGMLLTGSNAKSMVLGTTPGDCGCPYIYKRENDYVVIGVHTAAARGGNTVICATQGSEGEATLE
Chain of HRV 3Cpro (recombinant, purchased from EMD chemicals) (P03303 1538-1719): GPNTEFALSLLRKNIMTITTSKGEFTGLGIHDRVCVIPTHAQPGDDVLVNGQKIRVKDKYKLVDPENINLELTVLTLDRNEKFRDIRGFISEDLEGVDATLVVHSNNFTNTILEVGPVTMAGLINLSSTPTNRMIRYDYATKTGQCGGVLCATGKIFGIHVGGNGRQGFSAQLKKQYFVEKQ
Chain of TGEV 3CL protease (P0C6Y5 2879-3180): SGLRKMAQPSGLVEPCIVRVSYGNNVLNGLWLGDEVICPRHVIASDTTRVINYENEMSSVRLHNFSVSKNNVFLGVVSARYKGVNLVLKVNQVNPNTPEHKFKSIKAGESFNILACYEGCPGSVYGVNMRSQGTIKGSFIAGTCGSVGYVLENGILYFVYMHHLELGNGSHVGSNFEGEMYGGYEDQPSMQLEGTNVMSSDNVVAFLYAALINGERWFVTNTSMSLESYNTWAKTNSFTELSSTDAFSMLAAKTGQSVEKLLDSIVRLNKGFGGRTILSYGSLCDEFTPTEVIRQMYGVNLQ
Chain of NV 3CLpro (codon-optimized, full-length, N-terminal 6 His, recombinant) (Q83883 1101-1281): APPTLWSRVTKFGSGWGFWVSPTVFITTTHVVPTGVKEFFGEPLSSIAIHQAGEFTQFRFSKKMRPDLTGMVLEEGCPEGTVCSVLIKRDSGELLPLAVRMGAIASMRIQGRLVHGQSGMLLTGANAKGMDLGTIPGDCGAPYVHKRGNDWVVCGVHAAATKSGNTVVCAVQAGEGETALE
Chain of Norwalk virus 3CL protease (Q83883 1101-1281): as above

CC(C)C[C@H](NC(=O)OCc1ccccc1)C(=O)N[C@@H](CC1CCNC1=O)C(=O)C(=O)NC(C)C (some centres unmarked) [GC375]
EC50 (EV71): 15 µM | effect on the activity of 3CLpro of NV, MD145, MNV-1 (in words) [1]: lower than those of GC373 and GC376 | antiviral effects against FCV: no effects at concentrations up to (FCV [2]): > 50 µM | EC50 [3]: 3.2 µM | antiviral effects against MNV-1: no effects at concentrations up to (MNV-1 [4]): > 50 µM | inhibitory activity against Norwalk virus 3CL protease (in words) [5]: devoid of inhibitory activity | oral bioavailability, % F [6]: 16 % F | IC50 [7]: 42.6 ± 2.61 µM | IC50 [8]: 6.4 µM | EC50 (Teschovirus): 0.2 µM | EC50 (HAV [9]): 20 µM | EC50 (FCV [10]): 4.5 µM | EC50 (MHV): 4.5 µM | EC50 (TGEV): 0.2 µM | inhibitory effect on HAV 3Cpro (in words) (HAV 3Cpro): weak but appreciable inhibitory effects | EC50 (MNV-1 [11]): 85 µM | EC50 (FIPV): 1.5 µM | IC50 [12]: 4.66 ± 0.19 µM | IC50 [13]: 4.03 µM | EC50 (229E): 0.15 µM

CC(C)C[C@H](NC(=O)OCc1ccccc1)C(=O)N[C@@H](C[C@@H]1CCNC1=O)C(O)S(=O)(=O)[O-].[Na+] (some centres unmarked) [GC376]
effect on the activity of 3CLpro of NV, MD145, MNV-1 (in words) [1]: highly effective | oral bioavailability, % F [6]: 4 % F | effectiveness against the replication of HAV in cells (in words) (HAV [14]): no or weak effectiveness | increase of IC50 at passage number 15 (MNV-1 [15]): up to 10 fold | Mean duration of virus shedding (SEM), Tx (+) at PIDs 1-5 [16, 21]: 3.3 (0.3) | Mean duration of virus shedding (SEM), Tx (−) at PIDs 6-14 [16, 21]: 4.0 (2.0) | Mean log10 viral titer/rectal swab (GE/ml) (SEM), Overall viral titer shed at PIDs 1-14 [16, 21]: 5.17 (0.08)^B log10 GE/ml | Mean log10 viral titer/rectal swab (GE/ml) (SEM), Tx (+) at PIDs 1-5 [16, 21]: 5.28 (0.13)^b,A log10 GE/ml | Mean log10 viral titer/rectal swab (GE/ml) (SEM), Tx (−) at PIDs 6-14 [16, 21]: 5.11 (0.10)^B log10 GE/ml | fecal viral RNA titers after treatment was discontinued vs 30% DMSO vehicle pigs (in words) [16, 21]: significantly lower fecal viral RNA titers | Mean onset of virus shedding (PID) (SEM) ([16]; oral 100 mg/kg once a day for 5 days from day 1 after inoculation): 2.7 (0.3) PID | inhibition of the activity of TGEV 3CL protease (in words) (TGEV 3CL protease): remarkably inhibited | Mean duration of virus shedding, Tx (+) at PIDs 1-13 (human norovirus (HuNoV); [22]): 7.5 | Mean onset of virus shedding (PID) (human norovirus (HuNoV); [22]): 2.3 PID | effect of oral treatment on virus shedding compared to untreated animals (in words) (human norovirus (HuNoV); HuNoV-inoculated Gn pigs): significantly reduced the duration of virus shedding | Overall duration of virus shedding at PID1-27 (human norovirus (HuNoV); same regimen): 7.5 | Mean duration of virus shedding, Tx (−) at PIDs 14-27 (human norovirus (HuNoV); same regimen, after treatment discontinued): 0 | Mean log10 viral titer/rectal swab (GE/ml), Overall viral titer shed at PIDs 1-27 (human norovirus (HuNoV); [23]): 4.86 log10 GE/ml | Mean log10 viral titer/rectal swab (GE/ml), Tx (+) at PIDs 1-13 (human norovirus (HuNoV); [23]): 4.98 log10 GE/ml | Mean log10 viral titer/rectal swab (GE/ml), Tx (−) at PIDs 14-27 (human norovirus (HuNoV); [23]): <4.70 log10 GE/ml

CCOC(=O)/C=C/[C@H](C[C@@H]1CCNC1=O)NC(=O)[C@@H](CC(=O)[C@@H](NC(=O)c1cc(C)on1)C(C)C)Cc1ccc(F)cc1 [Rupintrivir, reference compound]
IC50 [17]: 0.7 ± 0.19 µM | IC50 [18]: 0.83 ± 0.19 µM | IC50 [19]: 0.34 ± 0.05 µM | IC50 [20]: 1.83 ± 0.38 µM
